# Laboratory results from paper PMC12692346, “Imidazolinium-Based NHC–Metal Complexes Overcome Both Cancer Multidrug Resistance and Cisplatin Resistance In Vitro” (International Journal of Molecular Sciences, 2025).
# What was measured:
# [1] = tested on: Mes-Sa/Dx5 eGFP; assay: Triple coculture fluorescence cytotoxicity test, doxorubicin-selected MDR line; type: cell-based, human; conditions: for IC50: triple coculture, 144 h incubation, fluorescence readout; for RR_Dx5 resistance ratio (IC50_MDR line / IC50_parental line) of Mes-Sa/Dx5: Mes-Sa/Dx5 vs Mes-Sa
# Protocol: (§1) All synthesized complexes and representatives of the respective ligands (Lb, Lc, SIPr, IPr) were tested in a triple coculture of uterine sarcoma cell lines, consisting of the parental Mes-Sa cell line, and its MDR derivatives Mes-Sa/B1 and Mes-Sa/Dx5, transfected or selected in doxorubicin to overexpress P-glycoprotein, respectively (Figure 2a–c, Table S2). Each cell line expresses a distinct fluorescent protein (mCherry, mOrange, and eGFP, respectively), and the total fluorescence of a well is proportional to the cell number, allowing the assessment of compound cytotoxicity.
# (§2) In a triple coculture system, cell lines expressing different fluorescent proteins were seeded in the same well. Cell lines (Mes-Sa mCherry, Mes-Sa/B1 mOrange, Mes-Sa/Dx5 eGFP [25]) were admixed and seeded on 384-well plates at a density of 3 × 800 cells/well (1:1:1 ratio), resulting in an overall total of 2400 cells. The next day, serially diluted compounds were added to the wells. Liquid handling was managed by a Hamilton StarLet pipetting robot. After 144 h of incubation, the fluorescence of mCherry (ex/em: 585/610 nm), mOrange (ex/em: 545/567 nm) and eGFP (ex/em: 485/510 nm) was recorded with an EnSpire plate reader (PerkinElmer, Waltham, MA, USA).
# (§3) pIC50 values derived from both co- and monoculture systems were determined by a custom program written in C# [25], then average and standard deviations were calculated and transformed to IC50 values. Every compound was tested in at least 3 independent experiments in triplicates.
# [2] = tested on: Mes-Sa/B1 mOrange; assay: Triple coculture fluorescence cytotoxicity test, ABCB1-transfected MDR line; type: cell-based, human; conditions: for IC50: triple coculture, 144 h incubation, fluorescence readout; for RR_B1 resistance ratio (IC50_MDR line / IC50_parental line) of Mes-Sa/B1: Mes-Sa/B1 vs Mes-Sa
# Protocol: as §1, §2, §3
# [3] = tested on: Mes-Sa mCherry uterine sarcoma cell line; assay: Triple coculture fluorescence cytotoxicity test, parental line; type: cell-based, human; conditions: 144 h incubation, fluorescence readout
# Protocol: as §1, §2, §3
# [4] = tested on: CST-2/3 cisplatin-resistant cells; assay: Monoculture PrestoBlue cytotoxicity test, cisplatin-resistant CST-2/3; type: cell-based, mouse; conditions: for RR_CST resistance ratio (IC50_CST-2/3 / IC50_CST): CST-2/3 vs CST; for IC50: monoculture, 120 h exposure, PrestoBlue
# Protocol: (§4) CST, a drug-naïve murine breast cancer cell line, and cisplatin-resistant cells CST-2/3 were seeded in monoculture into 384-well plates (Corning Inc., Corning, NY, USA) at a density of 2500 cells per well using automated liquid-handling. The cells were preincubated for 24 h to ensure adherence, followed by the addition of serially diluted compounds to a final well volume of 60 µL. Following 120 h of continuous drug exposure, cell viability was quantified using the PrestoBlue viability assay (Thermo Fisher Scientific, Waltham, MA, USA) after 1 h incubation at 555 nm excitation and 585 nm emission wavelengths.
# as §3
# [5] = tested on: CST murine breast cancer cell line; assay: Monoculture PrestoBlue cytotoxicity test, CST; type: cell-based, mouse; conditions: 120 h exposure
# Protocol: as §4, §3
SMILES,RR_Dx5 resistance ratio (IC50_MDR line / IC50_parental line) of Mes-Sa/Dx5 [1],RR_B1 resistance ratio (IC50_MDR line / IC50_parental line) of Mes-Sa/B1 [2],IC50 [1] [µM],IC50 [2] [µM],IC50 [3] [nM],also measured
"CC(C)c1cccc(C(C)C)c1-n1cc[n+](-c2c(C(C)C)cccc2C(C)C)c1 [IPr, reference compound]",23.4,15.5,–,–,–,"IC50 ([1]; Homo sapiens, MES-SA/Dx5): 51.3 µM; IC50 ([2]; Homo sapiens, MES-SA): 33.9 µM; IC50 ([3]; Homo sapiens, MES-SA): 2190 nM"
CC(C)c1cccc(C(C)C)c1N1C=[N+]([C@H](C)c2ccccc2)C[C@@H]1C(C)(C)C [Lc],30.4,21.4,–,–,–,"IC50 ([1]; Homo sapiens, MES-SA/Dx5): 73 µM; IC50 ([2]; Homo sapiens, MES-SA): 51.3 µM; IC50 ([3]; Homo sapiens, MES-SA): 2400 nM"
CC(C)c1cccc(C(C)C)c1-n1ccn(-c2c(C(C)C)cccc2C(C)C)[c]1=[Cu+]=[c]1n(-c2c(C(C)C)cccc2C(C)C)ccn1-c1c(C(C)C)cccc1C(C)C.F[B-](F)(F)F [Compound 9b],37.3,38.0,2.15,2.19,58,–
CC(C)c1cccc(C(C)C)c1N1[C](=[Ag][Cl])N([C@H](C)c2ccccc2)C[C@@H]1C(C)(C)C [Compound 2c],4.2,8.5,7.14,14.4,1690,–
"COc1cc([C@@H]2c3cc4c(cc3[C@@H](O[C@@H]3O[C@@H]5CO[C@@H](C)O[C@H]5[C@H](O)[C@H]3O)[C@H]3COC(=O)[C@H]23)OCO4)cc(OC)c1O [Etoposide, reference compound]",15.4,9.0,–,–,–,"IC50 ([1]; Homo sapiens, MES-SA/Dx5): 1.9 µM; IC50 ([2]; Homo sapiens, MES-SA): 1.11 µM; IC50 ([3]; Homo sapiens, MES-SA): 120 nM"
CC(C)c1cccc(C(C)C)c1-n1ccn(-c2c(C(C)C)cccc2C(C)C)[c]1=[Cu][Cl] [Compound 5b],1.8,2.0,1.83,2,1010,–
CC(C)c1cccc(C(C)C)c1N1[C](=[Ag][Cl])N([C@@H](C)C(C)(C)C)C[C@@H]1C(C)(C)C [Compound 2f],1.8,5.1,1.37,3.77,740,–
CC(C)c1cccc(C(C)C)c1N1[C](=[Au][Cl])N([C@@H](C)C(C)(C)C)C[C@@H]1C(C)(C)C [Compound 3f],1.2,1.6,13.8,18.6,11400,–
CC(C)c1cccc(C(C)C)c1N1[C](=[Au][Cl])N([C@H](C)c2ccccc2)C[C@@H]1C(C)(C)C [Compound 3c],2.1,2.1,39.6,39.8,18600,–
CC(C)c1cccc(C(C)C)c1N1[CH]([Cu][Cl])N(Cc2ccccc2)C[C@@H]1C(C)(C)C (stereo partly drawn) [Compound 1a],1.3,4.7,0.69,2.45,520,–
CC(C)c1cccc(C(C)C)c1N1[C](=[Au][Cl])N([C@H](C)c2ccc3ccccc3c2)C[C@@H]1C(C)(C)C [Compound 3e],2.3,2.6,16.9,19.1,7470,–
CC(C)c1cccc(C(C)C)c1N1[CH]([Cu][Cl])N([C@H](C)c2ccccc2)C[C@@H]1C(C)(C)C (stereo partly drawn) [Compound 1c],1.5,6.9,1.18,5.5,800,RR_Dx5 resistance ratio (IC50_MDR line / IC50_parental line) of Mes-Sa/Dx5 ([1]; listed as 1c*): 2.9; IC50 ([1]; listed as 1c*): 2.18 µM; RR_B1 resistance ratio (IC50_MDR line / IC50_parental line) of Mes-Sa/B1 ([2]; listed as 1c*): 5.4; IC50 ([2]; listed as 1c*): 3.97 µM; IC50 ([3]; listed as 1c*): 740 nM
C=C[CH2][Pd]([Cl])=[C]1N([C@@H](C)c2ccccc2)C[C@H](C(C)(C)C)N1c1c(C(C)C)cccc1C(C)C [Compound 4b],2.4,1.8,12.2,9.33,5190,–
CC(C)c1cccc(C(C)C)c1N1[CH]([Cu][Cl])N([C@@H](C)C(C)(C)C)C[C@@H]1C(C)(C)C (stereo partly drawn) [Compound 1f],1.4,2.7,4.19,8.13,3040,–
CC(C)c1cccc(C(C)C)c1N1[C](=[Ag][Cl])N([C@@H](C)c2cccc3ccccc23)C[C@@H]1C(C)(C)C [Compound 2d],6.2,9.6,3.37,5.2,540,–
"N.N.O=C([O-])C1(C(=O)[O-])CCC1.[Pt+2] [Carboplatin, reference compound]",–,–,–,–,–,RR_CST resistance ratio (IC50_CST-2/3 / IC50_CST) [4]: 7.0; IC50 [4]: 6.24 µM; IC50 [5]: 890 nM
"O=C1[O][Pt]2([NH][C@@H]3CCCC[C@H]3[NH]2)[O]C1=O [Oxaliplatin, reference compound]",–,–,–,–,–,RR_CST resistance ratio (IC50_CST-2/3 / IC50_CST) [4]: 9.3; IC50 [4]: 3.84 µM; IC50 [5]: 410 nM
CC(C)c1cccc(C(C)C)c1-n1ccn(-c2c(C(C)C)cccc2C(C)C)[c]1=[Au][Cl] [Compound 7b],3.2,1.9,60.3,36.3,18600,–
CC(C)c1cccc(C(C)C)c1-n1ccn(-c2c(C(C)C)cccc2C(C)C)[c]1=[Ag][Cl] [Compound 6b],2.1,2.4,3.89,4.37,1820,–
